Assay results: US20100310541A1, “Compositions and Methods for Reducing the Toxicity of Certain Toxins” (IRONWOOD PHARMACEUTICALS, INC., priority 2007, published 2010)
Entries after “also recorded” stand apart in the source; their conditions may differ.

Molecular target: Escherichia coli heat stable enterotoxin (STa; SEQ ID NO: 1) (Escherichia coli, UniProt P07965)
Assay type: biochemical
Details: pH 8

O[C@H](CS)[C@H](O)CS (racemic) [DTT, dithiothreitol]
effect on SEQ ID NO:1 (LC/MS, FIG. 3): no visible effect
reduction of SEQ ID NO:1 disulfide bonds (FIG. 5): a small amount of fully reduced peptide; also recorded: complete reduction
reduction of native SEQ ID NO:1 based on peak area (FIG. 4): 47%
